From BigSolDB 2.1

CCOC(=O)[C@@H](N)Cc1ccccc1.Cl
solubility (mole fraction) (in 1,4-dioxane, 288.15 K): 0.0023 | solubility (mole fraction) (in 1,4-dioxane, 293.15 K): 0.00301 | solubility (mole fraction) (in 1,4-dioxane, 298.15 K): 0.0037 | solubility (mole fraction) (in 1,4-dioxane, 303.15 K): 0.00498 | solubility (mole fraction) (in 1,4-dioxane, 308.15 K): 0.00668 | solubility (mole fraction) (in 1,4-dioxane, 313.15 K): 0.00876 | solubility (mole fraction) (in 1,4-dioxane, 318.15 K): 0.0115 | solubility (mole fraction) (in 1,4-dioxane, 323.15 K): 0.0148 | solubility (mole fraction) (in 2-butoxyethanol, 283.15 K): 0.035 | solubility (mole fraction) (in 2-butoxyethanol, 288.15 K): 0.039 | solubility (mole fraction) (in 2-butoxyethanol, 293.15 K): 0.0435 | solubility (mole fraction) (in 2-butoxyethanol, 298.15 K): 0.0473 | solubility (mole fraction) (in 2-butoxyethanol, 303.15 K): 0.052 | solubility (mole fraction) (in 2-butoxyethanol, 308.15 K): 0.0575 | solubility (mole fraction) (in 2-butoxyethanol, 313.15 K): 0.0633 | solubility (mole fraction) (in 2-butoxyethanol, 318.15 K): 0.0695 | solubility (mole fraction) (in 2-butoxyethanol, 323.15 K): 0.076 | solubility (mole fraction) (in 2-propoxyethanol, 283.15 K): 0.042 | solubility (mole fraction) (in 2-propoxyethanol, 288.15 K): 0.0472 | solubility (mole fraction) (in 2-propoxyethanol, 293.15 K): 0.052 | solubility (mole fraction) (in 2-propoxyethanol, 298.15 K): 0.0557 | solubility (mole fraction) (in 2-propoxyethanol, 303.15 K): 0.0616 | solubility (mole fraction) (in 2-propoxyethanol, 308.15 K): 0.0675 | solubility (mole fraction) (in 2-propoxyethanol, 313.15 K): 0.0738 | solubility (mole fraction) (in 2-propoxyethanol, 318.15 K): 0.08 | solubility (mole fraction) (in 2-propoxyethanol, 323.15 K): 0.087 | solubility (mole fraction) (in THF, 283.15 K): 0.00079 | solubility (mole fraction) (in THF, 288.15 K): 0.00102 | solubility (mole fraction) (in THF, 293.15 K): 0.00127 | solubility (mole fraction) (in THF, 298.15 K): 0.0016 | solubility (mole fraction) (in THF, 303.15 K): 0.00204 | solubility (mole fraction) (in THF, 308.15 K): 0.00257 | solubility (mole fraction) (in THF, 313.15 K): 0.00316 | solubility (mole fraction) (in THF, 318.15 K): 0.00398 | solubility (mole fraction) (in THF, 323.15 K): 0.00491 | solubility (mole fraction) (in isopropanol, 283.15 K): 0.0074 | solubility (mole fraction) (in isopropanol, 288.15 K): 0.00934 | solubility (mole fraction) (in isopropanol, 293.15 K): 0.0117 | solubility (mole fraction) (in isopropanol, 298.15 K): 0.0147 | solubility (mole fraction) (in isopropanol, 303.15 K): 0.0189 | solubility (mole fraction) (in isopropanol, 308.15 K): 0.0227 | solubility (mole fraction) (in isopropanol, 313.15 K): 0.0278 | solubility (mole fraction) (in isopropanol, 318.15 K): 0.0337 | solubility (mole fraction) (in isopropanol, 323.15 K): 0.0413 | solubility (mole fraction) (in n-butanol, 283.15 K): 0.0176 | solubility (mole fraction) (in n-butanol, 288.15 K): 0.0218 | solubility (mole fraction) (in n-butanol, 293.15 K): 0.0262 | solubility (mole fraction) (in n-butanol, 298.15 K): 0.032 | solubility (mole fraction) (in n-butanol, 303.15 K): 0.0355 | solubility (mole fraction) (in n-butanol, 308.15 K): 0.0417 | solubility (mole fraction) (in n-butanol, 313.15 K): 0.0509 | solubility (mole fraction) (in n-butanol, 318.15 K): 0.0601 | solubility (mole fraction) (in n-butanol, 323.15 K): 0.0696 | solubility (mole fraction) (in n-propanol, 283.15 K): 0.0272 | solubility (mole fraction) (in n-propanol, 288.15 K): 0.0316 | solubility (mole fraction) (in n-propanol, 293.15 K): 0.0367 | solubility (mole fraction) (in n-propanol, 298.15 K): 0.0423 | solubility (mole fraction) (in n-propanol, 303.15 K): 0.0491 | solubility (mole fraction) (in n-propanol, 308.15 K): 0.0566 | solubility (mole fraction) (in n-propanol, 313.15 K): 0.0656 | solubility (mole fraction) (in n-propanol, 318.15 K): 0.0734 | solubility (mole fraction) (in n-propanol, 323.15 K): 0.0838
